Values joined by “and” are separate entries in the source; they are usually repeats but may differ in a detail not shown here. Identical values can stand only once. Counter-ions that a name gives are not always drawn.
How the values were obtained:
[1] = molecular target: 5-hydroxytryptamine receptor 2A (Rattus norvegicus, UniProt P14842)
[2] = molecular target: Sodium-dependent dopamine transporter (Rattus norvegicus, UniProt P23977)
[3] = molecular target: Norepinephrine transporter (Rattus norvegicus, UniProt Q9JIA2)
[4] = molecular target: Sodium-dependent serotonin transporter (Rattus norvegicus, UniProt P31652)
Sodium-dependent serotonin transporter, sequence (P31652 whole entry): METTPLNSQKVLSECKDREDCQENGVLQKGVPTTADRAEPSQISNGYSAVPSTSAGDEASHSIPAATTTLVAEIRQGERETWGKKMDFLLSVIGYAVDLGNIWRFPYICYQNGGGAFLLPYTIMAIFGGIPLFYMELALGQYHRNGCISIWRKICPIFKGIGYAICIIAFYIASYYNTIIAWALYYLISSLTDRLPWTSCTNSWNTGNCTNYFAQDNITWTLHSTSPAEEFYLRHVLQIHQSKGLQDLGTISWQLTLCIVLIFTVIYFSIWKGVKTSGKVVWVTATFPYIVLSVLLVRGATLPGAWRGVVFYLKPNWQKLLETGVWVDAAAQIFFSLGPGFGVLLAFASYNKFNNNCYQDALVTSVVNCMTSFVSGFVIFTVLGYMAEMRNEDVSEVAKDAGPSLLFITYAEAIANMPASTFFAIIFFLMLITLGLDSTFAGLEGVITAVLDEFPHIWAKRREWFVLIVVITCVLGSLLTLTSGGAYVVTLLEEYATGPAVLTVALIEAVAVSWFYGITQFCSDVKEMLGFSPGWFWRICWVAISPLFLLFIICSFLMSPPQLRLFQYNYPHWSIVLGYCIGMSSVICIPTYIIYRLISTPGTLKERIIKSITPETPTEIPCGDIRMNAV

[5] = molecular target: T1, Alpha-1A adrenergic receptor (Rattus norvegicus, UniProt P43140)
T1 sequence (P43140 whole entry): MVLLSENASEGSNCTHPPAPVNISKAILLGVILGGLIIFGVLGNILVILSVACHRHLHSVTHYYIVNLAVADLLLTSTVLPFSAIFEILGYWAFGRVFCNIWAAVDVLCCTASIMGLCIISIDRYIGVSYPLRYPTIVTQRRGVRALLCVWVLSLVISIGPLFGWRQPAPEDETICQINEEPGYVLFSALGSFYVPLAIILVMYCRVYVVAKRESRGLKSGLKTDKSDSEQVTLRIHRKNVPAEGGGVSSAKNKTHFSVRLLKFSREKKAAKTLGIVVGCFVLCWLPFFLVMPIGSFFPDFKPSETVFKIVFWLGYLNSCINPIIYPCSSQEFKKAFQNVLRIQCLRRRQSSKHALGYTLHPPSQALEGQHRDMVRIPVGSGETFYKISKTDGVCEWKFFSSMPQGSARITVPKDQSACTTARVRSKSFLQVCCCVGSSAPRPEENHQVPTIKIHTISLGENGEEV

Sodium-dependent dopamine transporter, sequence (P23977 whole entry): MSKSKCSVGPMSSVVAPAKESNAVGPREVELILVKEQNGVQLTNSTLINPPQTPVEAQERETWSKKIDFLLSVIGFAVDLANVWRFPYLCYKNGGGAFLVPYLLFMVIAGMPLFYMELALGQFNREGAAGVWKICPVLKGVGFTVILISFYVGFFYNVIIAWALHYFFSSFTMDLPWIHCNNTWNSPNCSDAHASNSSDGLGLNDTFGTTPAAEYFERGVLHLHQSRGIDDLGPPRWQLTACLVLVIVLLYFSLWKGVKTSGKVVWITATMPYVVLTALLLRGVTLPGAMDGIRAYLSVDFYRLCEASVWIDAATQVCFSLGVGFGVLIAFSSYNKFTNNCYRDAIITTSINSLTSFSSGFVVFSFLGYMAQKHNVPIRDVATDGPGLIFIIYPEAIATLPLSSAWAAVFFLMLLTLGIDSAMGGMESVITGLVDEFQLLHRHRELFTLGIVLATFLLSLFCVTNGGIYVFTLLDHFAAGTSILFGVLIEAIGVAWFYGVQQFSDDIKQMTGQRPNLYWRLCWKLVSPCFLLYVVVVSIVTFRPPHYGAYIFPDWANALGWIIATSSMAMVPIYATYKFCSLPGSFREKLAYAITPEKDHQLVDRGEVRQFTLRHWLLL
5-hydroxytryptamine receptor 2A, sequence (P14842 whole entry): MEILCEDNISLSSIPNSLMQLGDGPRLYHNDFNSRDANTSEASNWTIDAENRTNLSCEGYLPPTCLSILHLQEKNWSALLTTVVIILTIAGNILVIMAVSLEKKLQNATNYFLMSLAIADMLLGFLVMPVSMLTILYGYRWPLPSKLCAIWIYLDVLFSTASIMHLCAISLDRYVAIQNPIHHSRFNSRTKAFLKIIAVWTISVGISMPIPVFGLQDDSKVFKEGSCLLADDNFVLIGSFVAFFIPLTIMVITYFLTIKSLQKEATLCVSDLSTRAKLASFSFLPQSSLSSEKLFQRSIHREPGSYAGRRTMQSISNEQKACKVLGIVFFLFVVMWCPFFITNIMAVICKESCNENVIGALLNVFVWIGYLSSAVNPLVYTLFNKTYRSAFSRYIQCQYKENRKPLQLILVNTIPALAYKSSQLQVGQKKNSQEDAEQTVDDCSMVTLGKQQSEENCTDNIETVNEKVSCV

Ki [5]	Compound	Ki [1]	Ki [2] [µM]	Ki [3] [µM]	Ki [4] [µM]
	c1ccc2c(CCC3CCNCC3)c[nH]c2c1	0.0502 µM	1.04	0.513	0.00172
	CSc1ccc(C2CN3CCCC3c3ccccc32)cc1 (stereo unspecified)		0.0698		
	COCCCC/C(=N\OCCN)c1ccc(C(F)(F)F)cc1 [(1E)-5-methoxy-1-[4-(trifluoromethyl)phenyl]pentan-1-one O-(2-aminoethyl)oxime]		> 10	0.299	
	COc1ccc(OC[C@H]2CN(C)CC[C@@H]2c2ccccc2)cc1 [(3R,4S)-3-(4-Methoxy-phenoxymethyl)-1-methyl-4-phenyl-piperidine]		1.04		
	COCCCCC(=NOCCN)c1ccc(Cl)cc1 [CAS_68717]	1 µM	0.462	0.0066	0.00276
	CN(C)CCCN1c2ccccc2CCc2ccc(Cl)cc21 [CLOMIPRAMINE HYDROCHLORIDE]		3.81		
0.274 µM	CSc1ccc([C@H]2CN3CCC[C@H]3c3ccccc32)cc1 [McN-5652-X-68]	0.142 µM			
0.213 µM and 0.314 µM	CSc1ccc([C@@H]2CN3CCC[C@@H]3c3ccccc32)cc1 [McN-5652-Z-68]	0.939 µM and 0.208 µM			
	CN(C)C/C=C(/c1ccc(Br)cc1)c1cccnc1 [cis-[3-(4-Bromo-phenyl)-3-pyridin-3-yl-allyl]-dimethyl-amine;HCl]		> 10		

Compound	Ki [5]	Ki [1]	Ki [2] [µM]	Ki [3] [µM]	Ki [4] [µM]
O=c1n(CCCN2CCN(c3cccc(Cl)c3)CC2)nc2ccccn12 [2-{3-[4-(3-chlorophenyl)piperazin-1-yl]propyl}[1,2,4]triazolo[4,3-a]pyridin-3(2H)-one]	0.084 µM		> 10	3.8	

Source: BindingDB's records for PubMed 2905001 (Mcneil Pharmaceutical, 1988)
